Laboratory results published in US4401604A, “Process for preparing thiosulfenamide derivatives of N-phosphonomethylglycine triesters” (Monsanto Company, priority 1981, dated 1983).

Experiments:
Format in all cases: in vivo
Barnyardgrass [1] = test: Post-emergence herbicidal activity, greenhouse; conditions: 4 WAT
Description: (§1) A good grade of top soil is placed in aluminum pans having holes in the bottom and compacted to a depth of 0.95 to 1.27 cm. from the top of the pan. A predetermined number of seeds of each of several dicotyledonous and monocotyledonous annual plant species and/or vegetative propagules for the perennial plant species are placed on the soil and pressed into the soil surface. The seeds and/or vegetative propagules are covered with soil and leveled. The pans are then placed on a sand bench in the greenhouse and watered from below as needed. After the plants reach the desired age (two to three weeks), each pan except for the control pans is removed individually to a spraying chamber and sprayed by means of an atomizer operating at a positive air pressure of approximately 1.46 kg/cm^2 absolute. The atomizer contains 6 ml. of a solution or suspension of the chemical. In that 6 ml., is an amount of a cyclohexanone emulsifying agent mixture to give a spray solution or suspension which contains about 0.4% by weight of the emulsifier. The spray solution or suspension contains a sufficient amount of the candidate chemical in order to give application rates corresponding to those set forth in the tables. The spray solution is prepared by taking an aliquot of a 1.0% by weight stock solution or suspension of the candidate chemical in an organic solvent such as acetone or tetrahydrofuran or in water. The emulsifying agent employed is a mixture comprising 35 weight percent butylamine dodecylbenzene sulfonate and 65 weight percent of a tall oil ethylene oxide condensate having about 11 moles of ethylene oxide per mole of tall oil. The pans are returned to the greenhouse and watered as before and the injury to the plants as compared to the control is observed at approximately two and four weeks as indicated in the tables under WAT and the results recorded. In some instances, the two-week observations are omitted.
(§2) The post-emergence herbicidal activity index used in Table I is as follows:
(§3) The plant species utilized in these tests are identified by letter in accordance with the following legend: […]

Canada Thistle = test: Post-emergence herbicidal activity, greenhouse; conditions: Table I, 4 WAT
Description: as §1, §2, §3

Cocklebur [2] = test: Post-emergence herbicidal activity, greenhouse; conditions: 4 WAT
Description: as §1, §2, §3

Crabgrass = test: Post-emergence herbicidal activity, greenhouse; conditions: Table II, 4 WAT
Description: as §1, §2, §3

Downy Brome [3] = test: Post-emergence herbicidal activity, greenhouse; conditions: 4 WAT
Description: as §1, §2, §3

Hemp Sesbania = test: Post-emergence herbicidal activity, greenhouse; conditions: Table II, 4 WAT
Description: as §1, §2, §3

Johnsongrass [4] = test: Post-emergence herbicidal activity, greenhouse; conditions: Table I, 4 WAT
Description: as §1, §2, §3

Lambsquarters [5] = test: Post-emergence herbicidal activity, greenhouse; conditions: 4 WAT
Description: as §1, §2, §3

Morningglory [6] = test: Post-emergence herbicidal activity, greenhouse; conditions: 4 WAT
Description: as §1, §2, §3

Panicum Spp = test: Post-emergence herbicidal activity, greenhouse; conditions: Table II, 4 WAT
Description: as §1, §2, §3

Quackgrass [7] = test: Post-emergence herbicidal activity, greenhouse; conditions: Table I, 4 WAT
Description: as §1, §2, §3

Rice = test: Post-emergence herbicidal activity, greenhouse; conditions: Table II, 4 WAT
Description: as §1, §2, §3

Smartweed = test: Post-emergence herbicidal activity, greenhouse; conditions: 4 WAT
Description: as §1, §2, §3

Sorghum = test: Post-emergence herbicidal activity, greenhouse; conditions: Table II, 4 WAT
Description: as §1, §2, §3

Soybean = test: Post-emergence herbicidal activity, greenhouse; conditions: Table II, 4 WAT
Description: as §1, §2, §3

Sugar Beet = test: Post-emergence herbicidal activity, greenhouse; conditions: Table II, 4 WAT
Description: as §1, §2, §3

Velvetleaf [8] = test: Post-emergence herbicidal activity, greenhouse; conditions: 4 WAT
Description: as §1, §2, §3

Wheat = test: Post-emergence herbicidal activity, greenhouse; conditions: Table II, 4 WAT
Description: as §1, §2, §3

Wild Buckwheat = test: Post-emergence herbicidal activity, greenhouse; conditions: Table II, 4 WAT
Description: as §1, §2, §3

Yellow Nutsedge [9] = test: Post-emergence herbicidal activity, greenhouse; conditions: Table I, 4 WAT
Description: as §1, §2, §3

Barnyardgrass [10] = test: Pre-emergent herbicidal activity; conditions: Table III; 11.2 kg/h; 2 WAT
Description: (§4) A good grade of top soil is placed in aluminum pans and compacted to a depth of 0.95 to 1.27 cm. from the top of each pan. A predetermined number of seeds or vegetative propagules of each of several plant species are placed on top of the soil in each pan and then pressed down. Herbicidal compositions prepared as in the previous example are applied by admixture with or incorporation in the top layer of soil.
(§5) In this method, the soil required to cover the seeds and propagules is weighed and admixed with a herbicidal composition containing a known amount of the active ingredient (compound of this invention). The pans are then filled with the admixture and leveled. Watering is carried out by permitting the soil in the pans to absorb moisture through apertures in the pan bottoms. The seed and propagule containing pans are placed on a wet sand bench and maintained for approximately two weeks under ordinary conditions of sunlight and watering. At the end of this period, the number of emerged plants of each species is noted and compared to an untreated control.
(§6) The pre-emergent herbicidal activity index used below is based upon average percent control of each species as follows:
(§7) Plant species in the table are identified by the same code letters used in the previous example.

Cocklebur [11] = test: Pre-emergent herbicidal activity; conditions: Table III; 11.2 kg/h; 2 WAT
Description: as §4, §5, §6, §7

Downy Brome [12] = test: Pre-emergent herbicidal activity; conditions: Table III; 11.2 kg/h; 2 WAT
Description: as §4, §5, §6, §7

Johnsongrass [13] = test: Pre-emergent herbicidal activity; conditions: Table III; 11.2 kg/h; 2 WAT
Description: as §4, §5, §6, §7

Lambsquarters [14] = test: Pre-emergent herbicidal activity; conditions: Table III; 11.2 kg/h; 2 WAT
Description: as §4, §5, §6, §7

Morningglory [15] = test: Pre-emergent herbicidal activity; conditions: Table III; 11.2 kg/h; 2 WAT
Description: as §4, §5, §6, §7

Quackgrass [16] = test: Pre-emergent herbicidal activity; conditions: Table III; 11.2 kg/h; 2 WAT
Description: as §4, §5, §6, §7

Velvetleaf [17] = test: Pre-emergent herbicidal activity; conditions: Table III; 11.2 kg/h; 2 WAT
Description: as §4, §5, §6, §7

Yellow Nutsedge [18] = test: Pre-emergent herbicidal activity; conditions: Table III; 11.2 kg/h; 2 WAT
Description: as §4, §5, §6, §7

## CCOC(=O)CN(CP(=O)(Oc1ccc(OC)cc1)Oc1ccc(OC)cc1)SSC [VI, Glycine, N-[[bis(4-methoxyphenoxy)phosphinyl]methyl]-N-(methyldithio)-, ethyl ester]
Barnyardgrass [1]; Table I, 5.6 kg/h
  post-emergence herbicidal activity index: 4 (100% control)
Barnyardgrass [1]; Table I, 11.2 kg/h
  post-emergence herbicidal activity index: 3 (75-99% control)
Barnyardgrass [1]; Table II, 0.28 kg/h
  post-emergence herbicidal activity index: 0 (0- 24% control)
Barnyardgrass [1]; Table II, 1.12 kg/h
  post-emergence herbicidal activity index: 3 (75-99% control)
Barnyardgrass [1]; Table II, 5.6 kg/h
  post-emergence herbicidal activity index: 4 (100% control)
Canada Thistle; 5.6 kg/h
  post-emergence herbicidal activity index: 1 (25-49% control)
Canada Thistle; 11.2 kg/h
  post-emergence herbicidal activity index: 2 (50-74% control)
Cocklebur [2]; Table I, 5.6 kg/h
  post-emergence herbicidal activity index: 2 (50-74% control)
Cocklebur [2]; Table I, 11.2 kg/h
  post-emergence herbicidal activity index: 3 (75-99% control)
Cocklebur [2]; Table II, 0.28 kg/h
  post-emergence herbicidal activity index: 0 (0- 24% control)
Cocklebur [2]; Table II, 1.12 kg/h
  post-emergence herbicidal activity index: 3 (75-99% control)
Cocklebur [2]; Table II, 5.6 kg/h
  post-emergence herbicidal activity index: 4 (100% control)
Crabgrass; 0.28 kg/h
  post-emergence herbicidal activity index: 0 (0- 24% control)
Crabgrass; 1.12 kg/h
  post-emergence herbicidal activity index: 4 (100% control)
Crabgrass; 5.6 kg/h
  post-emergence herbicidal activity index: 4 (100% control)
Downy Brome [3]; Table I, 5.6 kg/h
  post-emergence herbicidal activity index: 2 (50-74% control)
Downy Brome [3]; Table I, 11.2 kg/h
  post-emergence herbicidal activity index: 3 (75-99% control)
Downy Brome [3]; Table II, 0.28 kg/h
  post-emergence herbicidal activity index: 0 (0- 24% control)
Downy Brome [3]; Table II, 1.12 kg/h
  post-emergence herbicidal activity index: 2 (50-74% control)
Downy Brome [3]; Table II, 5.6 kg/h
  post-emergence herbicidal activity index: 4 (100% control)
Hemp Sesbania; 0.28 kg/h
  post-emergence herbicidal activity index: 0 (0- 24% control)
Hemp Sesbania; 1.12 kg/h
  post-emergence herbicidal activity index: 0 (0- 24% control)
Hemp Sesbania; 5.6 kg/h
  post-emergence herbicidal activity index: 3 (75-99% control)
Johnsongrass [4]; 5.6 kg/h
  post-emergence herbicidal activity index: 2 (50-74% control)
Johnsongrass [4]; 11.2 kg/h
  post-emergence herbicidal activity index: 3 (75-99% control)
Lambsquarters [5]; Table I, 5.6 kg/h
  post-emergence herbicidal activity index: 3 (75-99% control)
Lambsquarters [5]; Table I, 11.2 kg/h
  post-emergence herbicidal activity index: 3 (75-99% control)
Lambsquarters [5]; Table II, 0.28 kg/h
  post-emergence herbicidal activity index: 0 (0- 24% control)
Lambsquarters [5]; Table II, 1.12 kg/h
  post-emergence herbicidal activity index: 2 (50-74% control)
Lambsquarters [5]; Table II, 5.6 kg/h
  post-emergence herbicidal activity index: 4 (100% control)
Morningglory [6]; Table I, 5.6 kg/h
  post-emergence herbicidal activity index: 2 (50-74% control)
Morningglory [6]; Table I, 11.2 kg/h
  post-emergence herbicidal activity index: 3 (75-99% control)
Morningglory [6]; Table II, 0.28 kg/h
  post-emergence herbicidal activity index: 0 (0- 24% control)
Morningglory [6]; Table II, 1.12 kg/h
  post-emergence herbicidal activity index: 2 (50-74% control)
Morningglory [6]; Table II, 5.6 kg/h
  post-emergence herbicidal activity index: 3 (75-99% control)
Panicum Spp; 0.28 kg/h
  post-emergence herbicidal activity index: 0 (0- 24% control)
Panicum Spp; 1.12 kg/h
  post-emergence herbicidal activity index: 2 (50-74% control)
Panicum Spp; 5.6 kg/h
  post-emergence herbicidal activity index: 4 (100% control)
Quackgrass [7]; 5.6 kg/h
  post-emergence herbicidal activity index: 0 (0- 24% control)
Quackgrass [7]; 11.2 kg/h
  post-emergence herbicidal activity index: 1 (25-49% control)
Rice; 0.28 kg/h
  post-emergence herbicidal activity index: 0 (0- 24% control)
Rice; 1.12 kg/h
  post-emergence herbicidal activity index: 0 (0- 24% control)
Rice; 5.6 kg/h
  post-emergence herbicidal activity index: 3 (75-99% control)
Smartweed; Table I, 5.6 kg/h
  post-emergence herbicidal activity index: 2 (50-74% control)
Smartweed; Table I, 11.2 kg/h
  post-emergence herbicidal activity index: 2 (50-74% control)
Smartweed; Table II, 0.28 kg/h
  post-emergence herbicidal activity index: 0 (0- 24% control)
Smartweed; Table II, 5.6 kg/h
  post-emergence herbicidal activity index: 4 (100% control)
Sorghum; 0.28 kg/h
  post-emergence herbicidal activity index: 0 (0- 24% control)
Sorghum; 1.12 kg/h
  post-emergence herbicidal activity index: 2 (50-74% control)
Sorghum; 5.6 kg/h
  post-emergence herbicidal activity index: 3 (75-99% control)
Soybean; 0.28 kg/h
  post-emergence herbicidal activity index: 0 (0- 24% control)
Soybean; 1.12 kg/h
  post-emergence herbicidal activity index: 1 (25-49% control)
Soybean; 5.6 kg/h
  post-emergence herbicidal activity index: 3 (75-99% control)
Sugar Beet; 0.28 kg/h
  post-emergence herbicidal activity index: 0 (0- 24% control)
Sugar Beet; 1.12 kg/h
  post-emergence herbicidal activity index: 1 (25-49% control)
Sugar Beet; 5.6 kg/h
  post-emergence herbicidal activity index: 4 (100% control)
Velvetleaf [8]; Table I, 5.6 kg/h
  post-emergence herbicidal activity index: 1 (25-49% control)
Velvetleaf [8]; Table I, 11.2 kg/h
  post-emergence herbicidal activity index: 2 (50-74% control)
Velvetleaf [8]; Table II, 0.28 kg/h
  post-emergence herbicidal activity index: 0 (0- 24% control)
Velvetleaf [8]; Table II, 1.12 kg/h
  post-emergence herbicidal activity index: 1 (25-49% control)
Velvetleaf [8]; Table II, 5.6 kg/h
  post-emergence herbicidal activity index: 4 (100% control)
Wheat; 0.28 kg/h
  post-emergence herbicidal activity index: 0 (0- 24% control)
Wheat; 1.12 kg/h
  post-emergence herbicidal activity index: 1 (25-49% control)
Wheat; 5.6 kg/h
  post-emergence herbicidal activity index: 3 (75-99% control)
Wild Buckwheat; 0.28 kg/h
  post-emergence herbicidal activity index: 0 (0- 24% control)
Wild Buckwheat; 1.12 kg/h
  post-emergence herbicidal activity index: 1 (25-49% control)
Wild Buckwheat; 5.6 kg/h
  post-emergence herbicidal activity index: 4 (100% control)
Yellow Nutsedge [9]; 5.6 kg/h
  post-emergence herbicidal activity index: 1 (25-49% control)
Yellow Nutsedge [9]; 11.2 kg/h
  post-emergence herbicidal activity index: 1 (25-49% control)
Barnyardgrass [10]
  pre-emergent herbicidal activity index: 0 (0-24% control)
Cocklebur [11]
  pre-emergent herbicidal activity index: 0 (0-24% control)
Downy Brome [12]
  pre-emergent herbicidal activity index: 0 (0-24% control)
Johnsongrass [13]
  pre-emergent herbicidal activity index: 0 (0-24% control)
Lambsquarters [14]
  pre-emergent herbicidal activity index: 0 (0-24% control)
Morningglory [15]
  pre-emergent herbicidal activity index: 0 (0-24% control)
Quackgrass [16]
  pre-emergent herbicidal activity index: 0 (0-24% control)
Velvetleaf [17]
  pre-emergent herbicidal activity index: 0 (0-24% control)
Yellow Nutsedge [18]
  pre-emergent herbicidal activity index: 0 (0-24% control)
